Experimental data reported in patent publication US20050170020A1, “Using organic and / or inorganic potassium and its salts to treat autoimmune and other health disorders and methods of administering the same” (priority 2003, published 2005).

System: psoriasis affected scalp area
Assay: Phenylephrine applied on psoriasis affected scalp area
Format: in vivo, human
Conditions: topical, inventor
Excerpt: From above it is clear that by reducing the body water loss i.e. by vasoconstriction we can control the psoriasis. To check this theory inventor has applied Phenylephrine which is used for nasal decongestant, on psoriasis affected scalp area. Phenylephrine is an Adrenergic Agent that mimics the sympathetic neurotransmitter norepinephrine (NE). […] This worked by way of reducing water loss of psoriatic skin by vasoconstriction.

CNC[C@H](O)c1cccc(O)c1 [Phenylephrine]
Response of psoriatic skin: lesions reduced
